In patent US7611853B2, “Assay to screen for anti-malarials” (priority 2002, dated 2009):

Key:
[1] = test system: Plasmodium falciparum ring-infected erythrocytes; experiment: Anti-malarial effect of GA and HA on overall parasitemia (giemsa staining); type: cell-based
Description: To show the effects of GA on overall parasitemia, ring-infected erythrocytes were either treated with DMSO or with 5 μM GA for 48 hrs (culture was replenished with medium and GA every 24 hrs) and parasitemia was calculated by giemsa staining. While the mock-treated parasites multiplied at the end of 48 hrs, parasitemia was reduced to 50 percent in GA treated cultures by 48 hrs.

Plasmodium falciparum = experiment: Growth inhibitory effect of GA on synchronous parasites (Giemsa-stained smears); type: cell-based
Description: In order to check if GA could inhibit Plasmodium falciparum growth in vitro, we prepared highly synchronous ring-infected parasites using 5% sorbitol. These ring-staged parasites were suspended in RPMI to make 5% hematocrit. […] This correlates with elevated expression of Pfhsp90 in the trophozoite stage compared to ring stage.

Compound | parasitemia reduced to ([1]; ring-infected erythrocytes, 5 μM, 48 hrs, replenished every 24 hrs) [%] | inhibition at 10 µM (Plasmodium falciparum; Plasmodium falciparum, GA added in the trophozoite stage, 10 μM) [%] | concentration of maximal growth inhibition (Plasmodium falciparum; ring-staged parasites, 24 h) [µM] | anti-malarial effect (summary statement) [1] | concentration of maximal reduction in parasitemia ([1]; 0.5, 1, 5 and 10 μM tested, 48 hrs) [µM]
COC1=C2C[C@@H](C)C[C@H](OC)[C@H](O)[C@@H](C)/C=C(\C)[C@H](OC(N)=O)[C@@H](OC)/C=C\C=C(/C)C(=O)NC(=CC1=O)C2=O [GA, Geldanamycin] | 50 | 100 | 5 |  | 
CO[C@H]1[C@@H](OC)C[C@H](C)[C@@H](OC)C2=CC(=O)C=C(NC(=O)/C(C)=C/C=C\[C@H](OC)[C@@H](OC(N)=O)/C(C)=C/[C@@H]1C)C2=O [HA, Herbimycin A] |  |  |  | kill the malarial parasite at the stage of early trophozoite development | 10
